Measurements reported in ChEMBL document CHEMBL1201862, “PubChem BioAssay data set” (2004).
Active and inactive are the calls of the source.

Assays:
Coagulation factor XII = biological target: T1, Coagulation factor XII (Homo sapiens, UniProt P00748); experiment: activated coagulation factor XII inhibitor potency, concentration-effect curve, cell-free (AID 716); assay type: functional
T1 sequence (P00748 whole entry): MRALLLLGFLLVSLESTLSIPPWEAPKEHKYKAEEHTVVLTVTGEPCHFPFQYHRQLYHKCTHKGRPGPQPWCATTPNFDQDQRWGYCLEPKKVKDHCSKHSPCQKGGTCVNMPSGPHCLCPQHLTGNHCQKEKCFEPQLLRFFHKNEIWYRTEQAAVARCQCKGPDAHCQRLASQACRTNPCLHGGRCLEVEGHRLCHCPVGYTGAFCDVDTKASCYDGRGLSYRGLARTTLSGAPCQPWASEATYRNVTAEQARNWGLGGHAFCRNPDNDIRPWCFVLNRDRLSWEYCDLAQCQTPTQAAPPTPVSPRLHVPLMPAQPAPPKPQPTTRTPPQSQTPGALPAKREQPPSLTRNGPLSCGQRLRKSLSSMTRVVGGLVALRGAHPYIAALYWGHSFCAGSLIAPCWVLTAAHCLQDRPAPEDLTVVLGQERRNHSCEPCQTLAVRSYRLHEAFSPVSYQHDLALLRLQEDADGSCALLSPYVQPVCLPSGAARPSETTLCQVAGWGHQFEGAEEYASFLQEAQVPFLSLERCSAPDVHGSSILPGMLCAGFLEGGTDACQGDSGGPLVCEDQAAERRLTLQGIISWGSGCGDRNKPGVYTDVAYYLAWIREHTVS

[1] = A549 cell cytotoxicity, dose response, cytotoxicity control, plate reader, cherry-pick, antagonist series (AID 743412); assay type: functional, cell-based
[2] = blockers of bursicon-stimulated LGR2 cAMP reporter – cell-based, HEK293, CRE-luciferase reporter, cherry pick, set 2, dose response (AID 743343); assay type: functional;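 also: transfected cells were stimulated with diluted bursicon conditioned medium after compound addition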
[3] = reduced cellular PGC1a acetyl-lysine signal – cell-based, cherry-picked samples, dose response (AID 720514); assay type: functional;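 also: potency may reflect raised or lowered acetylation signal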
[4] = blockade of melanocortin 4 receptor signaling – cell-based, plate reader, cherry pick, counter-screen for LGR2 antagonist project, dose response (AID 743444); assay type: functional;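 also: transfected HEK 293 cells stimulated with alpha-MSH peptide; potency of inhibitors of the alpha-MSH evoked signal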
[5] = viability loss in HEK293 cells – cell-based, plate reader, cherry-picked samples, cytotoxicity control, dose response (AID 743446); assay type: functional
[6] = toxicity toward HepG2 liver cells – cell-based, plate reader, cherry-pick, antagonist series, cytotoxicity control, dose response (AID 743416); assay type: functional
Paired box protein Pax-8 = Paired box protein Pax-8 (Homo sapiens, UniProt Q06710); experiment: PAX8 transcriptional activity inhibition in RMG-I – RMG-I cells, luciferase, cherry-pick, dose response (AID 687027); assay type: functional, cell-based;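 also: luciferase reporter driven by Pax8 target thyroperoxidase promoter measured by SteadyGlo luminescence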
INS1 = experiment: INS-1E survival protection against cytokine death – cell-based, luminescence, retest, dose response (AID 449756); assay type: functional; conditions: Rattus norvegicus;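 also: cell death triggered by IL-1 beta plus TNF-alpha plus IFN-gamma mixture; protective hits raise ATP signal compared with cytokine alone wells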
[7] = Fluorescence-based cell-based high throughput dose response assay for inhibitors of the interaction of nucleotide-binding oligomerization domain containing 2 (NOD2) and the receptor-interacting serine-threonine kinase 2 (RIPK2).; assay type: functional; conditions: Homo sapiens
[8] = biological target: Heat shock protein HSP 90-alpha (Homo sapiens, UniProt P07900); assay type: functional, organism-based
[9] = biological target: DNA dC->dU-editing enzyme APOBEC-3G (Homo sapiens, UniProt Q9HC16); assay type: functional;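 also: Dose-response counterscreen measuring inhibition of APOBEC3G DNA deaminase activity, run while confirming APOBEC3A inhibitors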
[10] = biological target: DNA dC->dU-editing enzyme APOBEC-3A (Homo sapiens, UniProt P31941); experiment: Dose Response confirmation of small molecule APOBEC3A DNA Deaminase Inhibitors via a fluorescence-based single-stranded DNA deaminase assay. [Related pubchem assays (depositor defined):AID493011, AID493024]; assay type: functional
[11] = biological target: T2, Lytic switch protein BZLF1 (Epstein-Barr virus (strain B95-8) (HHV-4) (Human herpesvirus 4), UniProt P03206); experiment: inhibition of BZLF1 ZTA DNA binding – biochemical, fluorescence polarization, Epstein-Barr virus, 1536-well, counter-screen for EBNA-1 inhibitor project, dose response (AID 2377); design: species or system human gammaherpesvirus 4;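 also: fluorescence polarization of Cy5-labelled ZRE DNA probe bound by purified Zta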
T2 sequence (P03206 whole entry): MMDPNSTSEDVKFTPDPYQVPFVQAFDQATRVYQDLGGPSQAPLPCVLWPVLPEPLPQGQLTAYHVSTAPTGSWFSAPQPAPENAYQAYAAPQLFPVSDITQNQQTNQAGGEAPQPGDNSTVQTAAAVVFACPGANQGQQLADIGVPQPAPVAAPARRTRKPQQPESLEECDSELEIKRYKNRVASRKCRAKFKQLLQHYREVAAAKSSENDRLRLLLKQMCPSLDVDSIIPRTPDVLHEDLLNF

[12] = biological target: T3, Epstein-Barr nuclear antigen 1 (Epstein-Barr virus (strain B95-8) (HHV-4) (Human herpesvirus 4), UniProt P03211); experiment: inhibition of EBV nuclear antigen 1 DNA binding – biochemical, fluorescence polarization, 1536-well, dose response (AID 2381); design: species or system human gammaherpesvirus 4;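 also: fluorescence polarization of a Cy5 DNA probe bound by EBNA-1 protein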
T3 sequence (P03211 whole entry): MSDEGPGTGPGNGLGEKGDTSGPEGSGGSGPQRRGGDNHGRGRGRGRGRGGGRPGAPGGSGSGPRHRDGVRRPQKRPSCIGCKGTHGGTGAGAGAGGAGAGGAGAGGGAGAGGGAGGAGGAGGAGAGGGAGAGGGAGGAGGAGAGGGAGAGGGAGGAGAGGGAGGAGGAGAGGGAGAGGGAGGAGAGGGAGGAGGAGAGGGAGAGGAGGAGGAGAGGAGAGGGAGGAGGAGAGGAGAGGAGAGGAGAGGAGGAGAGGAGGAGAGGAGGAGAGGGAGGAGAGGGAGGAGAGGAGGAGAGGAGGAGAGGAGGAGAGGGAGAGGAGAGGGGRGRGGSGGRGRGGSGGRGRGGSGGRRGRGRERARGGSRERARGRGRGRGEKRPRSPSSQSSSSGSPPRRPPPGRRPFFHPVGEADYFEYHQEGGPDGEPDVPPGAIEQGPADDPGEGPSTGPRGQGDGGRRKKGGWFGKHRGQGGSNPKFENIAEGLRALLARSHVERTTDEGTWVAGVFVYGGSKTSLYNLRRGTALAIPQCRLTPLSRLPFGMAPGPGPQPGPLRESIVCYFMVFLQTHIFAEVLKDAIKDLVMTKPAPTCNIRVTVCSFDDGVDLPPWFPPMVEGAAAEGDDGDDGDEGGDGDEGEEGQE

[13] = biological target: Voltage-dependent T-type calcium channel subunit alpha-1H (Homo sapiens, UniProt O95180); assay type: functional;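 also: channel activity triggered by adding a high calcium stimulation buffer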
[14] = biological target: Photoreceptor-specific nuclear receptor (Homo sapiens, UniProt Q9Y5X4); experiment: ligands suppressing NR2E3 nuclear receptor activity – biochemical, TR-FRET, dose response (AID 463256); assay type: functional
[15] = biological target: Peroxisome proliferator-activated receptor gamma/Nuclear receptor corepressor 2 (Homo sapiens, UniProt P37231+Q9Y618); experiment: Counterscreen for NR2E3 inverse agonists: TR-FRET-based biochemical high throughput dose response assay to identify inverse agonists of the interaction between peroxisome proliferator-activated receptor gamma (PPARg) and nuclear receptor co-repressor 2 (NCOR2).; assay type: functional
Prothrombin = Prothrombin (Homo sapiens, UniProt P00734); experiment: Thrombin 1536 HTS Dose Response Confirmation. [Related pubchem assays: 1046 (Thrombin 1536 HTS; hits were confirmed in this assay)]; assay type: functional
[16] = biological target: T4, Carboxy-terminal domain RNA polymerase II polypeptide A small phosphatase 1 (Homo sapiens, UniProt Q9GZU7); experiment: CTDSP1 inhibitors, concentration-response, biochemical, absorbance readout, ultra-high-throughput screen actives (AID 540297); assay type: functional
T4 sequence (Q9GZU7 whole entry): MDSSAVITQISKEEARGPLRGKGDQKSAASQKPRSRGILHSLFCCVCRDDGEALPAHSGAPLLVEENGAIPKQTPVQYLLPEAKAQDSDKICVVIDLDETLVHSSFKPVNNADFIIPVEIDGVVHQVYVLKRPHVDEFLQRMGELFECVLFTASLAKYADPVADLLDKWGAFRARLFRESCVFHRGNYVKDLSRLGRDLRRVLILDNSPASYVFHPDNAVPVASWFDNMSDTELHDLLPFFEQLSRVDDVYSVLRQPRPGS

[17] = biological target: FAD-linked sulfhydryl oxidase ALR (Homo sapiens, UniProt P55789); experiment: ALR-catalysed DTT oxidation blockers – biochemical, H2O2 detection, luminescence, cherry-pick, dose response (AID 493248)
[18] = biological target: T5, Oxysterols receptor LXR-beta (Homo sapiens, UniProt P55055); assay type: functional, cell-based;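 also: Cell-based luminescence dose-response assay of agonist activity at LXR, run as a confirmatory counterscreen to a daf-12 agonist screen; HEK293 cells with Gal4-LXR fusion and GAL4-driven luciferase reporter; agonist potency from rising luciferase signal of a Gal4-LXR reporter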
T5 sequence (P55055 whole entry): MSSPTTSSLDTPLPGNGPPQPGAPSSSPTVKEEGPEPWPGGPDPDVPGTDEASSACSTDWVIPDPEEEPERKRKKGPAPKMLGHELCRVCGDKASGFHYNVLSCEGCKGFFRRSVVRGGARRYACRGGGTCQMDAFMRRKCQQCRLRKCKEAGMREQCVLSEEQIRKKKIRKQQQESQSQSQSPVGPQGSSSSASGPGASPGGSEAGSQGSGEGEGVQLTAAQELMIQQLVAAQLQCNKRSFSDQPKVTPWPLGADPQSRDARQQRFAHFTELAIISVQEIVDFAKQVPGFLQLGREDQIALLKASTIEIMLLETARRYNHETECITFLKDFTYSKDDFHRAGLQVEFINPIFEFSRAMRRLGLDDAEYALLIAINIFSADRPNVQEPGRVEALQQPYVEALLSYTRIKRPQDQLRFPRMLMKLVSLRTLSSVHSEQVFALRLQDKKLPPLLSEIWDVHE

HEK293 = experiment: EBV LMP1 TES2 canonical NF-kB signalling blockers – cell-based, HEK293, luciferase, cherry-pick, dose response (AID 588343); assay type: functional; conditions: Homo sapiens
[19] = Luminescence-based counterscreen assay for KLF5 inhibitors: dose response cell-based high throughput screening assay to identify cytotoxic compounds using the IEC-6 intestinal epithelial cell line. [Related pubchem assays: 1700 (Primary screen.), 1834 (Confirmation screen.), 1858 (Summary AID.), 1905 (Counterscreen.)]; assay type: functional
[20] = toxicity to human hepatoma HepG2 cells – cell-based, cherry-picked samples, cytotoxicity control, dose response (AID 1159577); assay type: functional
[21] = P. falciparum Dd2 growth inhibitors, dose response, SYBR Green, cherry-picked samples (AID 1159567); assay type: functional, cell-based

Chain of DNA dC->dU-editing enzyme APOBEC-3G (Q9HC16 whole entry): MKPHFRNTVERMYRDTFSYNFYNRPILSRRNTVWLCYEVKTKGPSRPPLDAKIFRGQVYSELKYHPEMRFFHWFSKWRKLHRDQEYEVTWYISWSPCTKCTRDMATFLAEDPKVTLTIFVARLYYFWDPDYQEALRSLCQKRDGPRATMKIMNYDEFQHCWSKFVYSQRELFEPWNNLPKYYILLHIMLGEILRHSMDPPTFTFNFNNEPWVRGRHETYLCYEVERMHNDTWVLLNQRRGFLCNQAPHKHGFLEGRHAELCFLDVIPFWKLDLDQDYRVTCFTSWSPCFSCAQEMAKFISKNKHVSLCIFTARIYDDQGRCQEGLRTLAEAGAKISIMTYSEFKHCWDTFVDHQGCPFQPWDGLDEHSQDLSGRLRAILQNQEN
Chain of Voltage-dependent T-type calcium channel subunit alpha-1H (O95180 whole entry): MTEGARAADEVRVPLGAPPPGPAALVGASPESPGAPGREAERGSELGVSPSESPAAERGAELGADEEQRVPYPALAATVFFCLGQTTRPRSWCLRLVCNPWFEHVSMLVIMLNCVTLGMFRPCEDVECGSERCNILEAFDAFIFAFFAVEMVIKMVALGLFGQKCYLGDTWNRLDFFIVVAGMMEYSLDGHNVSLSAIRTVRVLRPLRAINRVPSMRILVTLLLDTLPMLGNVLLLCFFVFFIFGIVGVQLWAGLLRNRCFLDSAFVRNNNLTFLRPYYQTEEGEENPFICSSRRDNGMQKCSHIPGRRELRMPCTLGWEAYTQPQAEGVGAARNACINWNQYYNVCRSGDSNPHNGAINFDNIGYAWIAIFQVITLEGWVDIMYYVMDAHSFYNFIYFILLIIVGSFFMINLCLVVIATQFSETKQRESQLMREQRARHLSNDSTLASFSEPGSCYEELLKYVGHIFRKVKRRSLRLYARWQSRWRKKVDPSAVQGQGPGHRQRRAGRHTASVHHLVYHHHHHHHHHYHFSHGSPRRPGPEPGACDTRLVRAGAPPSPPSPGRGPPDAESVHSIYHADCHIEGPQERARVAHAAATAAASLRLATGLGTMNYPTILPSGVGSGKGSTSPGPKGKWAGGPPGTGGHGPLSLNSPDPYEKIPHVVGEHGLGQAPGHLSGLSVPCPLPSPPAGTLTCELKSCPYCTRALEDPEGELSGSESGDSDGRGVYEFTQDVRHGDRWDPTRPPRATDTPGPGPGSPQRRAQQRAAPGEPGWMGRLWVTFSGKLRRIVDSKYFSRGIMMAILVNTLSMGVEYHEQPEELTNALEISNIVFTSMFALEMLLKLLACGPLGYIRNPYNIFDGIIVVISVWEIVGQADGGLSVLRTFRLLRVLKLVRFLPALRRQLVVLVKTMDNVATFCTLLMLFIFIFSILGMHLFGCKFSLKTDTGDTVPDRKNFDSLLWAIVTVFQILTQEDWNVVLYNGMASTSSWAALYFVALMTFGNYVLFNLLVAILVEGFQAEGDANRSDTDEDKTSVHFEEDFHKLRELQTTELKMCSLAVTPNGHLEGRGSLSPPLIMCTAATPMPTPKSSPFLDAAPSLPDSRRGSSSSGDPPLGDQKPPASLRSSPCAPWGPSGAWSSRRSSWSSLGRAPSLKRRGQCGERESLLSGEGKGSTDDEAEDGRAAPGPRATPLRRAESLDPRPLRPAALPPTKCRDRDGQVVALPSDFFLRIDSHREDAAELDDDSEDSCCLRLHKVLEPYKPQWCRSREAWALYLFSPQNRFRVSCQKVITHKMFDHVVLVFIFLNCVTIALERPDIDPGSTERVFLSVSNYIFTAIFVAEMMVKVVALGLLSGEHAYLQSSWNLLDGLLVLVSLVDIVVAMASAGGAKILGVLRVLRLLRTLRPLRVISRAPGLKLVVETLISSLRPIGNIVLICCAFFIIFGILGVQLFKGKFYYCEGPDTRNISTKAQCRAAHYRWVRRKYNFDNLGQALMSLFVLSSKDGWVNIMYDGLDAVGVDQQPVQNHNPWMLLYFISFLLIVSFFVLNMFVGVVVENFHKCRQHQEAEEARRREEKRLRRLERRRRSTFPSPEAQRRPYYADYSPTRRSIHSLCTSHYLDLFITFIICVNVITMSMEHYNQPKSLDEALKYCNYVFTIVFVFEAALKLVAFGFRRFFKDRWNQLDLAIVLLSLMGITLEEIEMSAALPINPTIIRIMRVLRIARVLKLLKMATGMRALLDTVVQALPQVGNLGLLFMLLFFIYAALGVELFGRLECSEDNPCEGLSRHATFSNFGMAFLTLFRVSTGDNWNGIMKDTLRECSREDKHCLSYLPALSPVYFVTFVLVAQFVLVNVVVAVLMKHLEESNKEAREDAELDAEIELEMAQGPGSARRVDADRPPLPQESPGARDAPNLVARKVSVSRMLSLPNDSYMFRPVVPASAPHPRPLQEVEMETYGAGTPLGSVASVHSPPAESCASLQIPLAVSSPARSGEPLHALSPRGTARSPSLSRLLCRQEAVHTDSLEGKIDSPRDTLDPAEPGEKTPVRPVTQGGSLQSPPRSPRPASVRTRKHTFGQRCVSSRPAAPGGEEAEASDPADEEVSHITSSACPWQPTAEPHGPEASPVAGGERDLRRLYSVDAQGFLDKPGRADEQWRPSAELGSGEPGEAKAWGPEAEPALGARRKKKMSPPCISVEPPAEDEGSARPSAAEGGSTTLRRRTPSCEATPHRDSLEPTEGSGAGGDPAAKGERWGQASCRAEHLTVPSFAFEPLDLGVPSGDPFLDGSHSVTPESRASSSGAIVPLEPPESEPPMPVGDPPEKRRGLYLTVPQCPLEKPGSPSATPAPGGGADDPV
Chain of DNA dC->dU-editing enzyme APOBEC-3A (P31941 whole entry): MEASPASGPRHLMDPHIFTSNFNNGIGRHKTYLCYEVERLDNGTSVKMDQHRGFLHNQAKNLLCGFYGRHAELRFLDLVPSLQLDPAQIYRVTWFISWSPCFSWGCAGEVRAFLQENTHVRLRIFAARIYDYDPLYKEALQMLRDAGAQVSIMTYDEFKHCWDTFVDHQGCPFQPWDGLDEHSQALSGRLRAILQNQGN
Chain of Photoreceptor-specific nuclear receptor (Q9Y5X4 whole entry): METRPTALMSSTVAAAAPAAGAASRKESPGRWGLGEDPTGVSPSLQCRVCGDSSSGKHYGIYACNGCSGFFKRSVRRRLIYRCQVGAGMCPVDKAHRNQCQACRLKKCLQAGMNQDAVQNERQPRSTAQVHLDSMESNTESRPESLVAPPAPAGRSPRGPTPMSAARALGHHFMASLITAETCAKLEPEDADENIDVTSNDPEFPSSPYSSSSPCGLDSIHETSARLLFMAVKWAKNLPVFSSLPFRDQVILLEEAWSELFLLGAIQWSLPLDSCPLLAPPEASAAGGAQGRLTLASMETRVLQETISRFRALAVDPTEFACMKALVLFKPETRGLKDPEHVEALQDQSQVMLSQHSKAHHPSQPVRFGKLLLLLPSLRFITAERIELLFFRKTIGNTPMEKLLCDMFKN
Chain of Paired box protein Pax-8 (Q06710 whole entry): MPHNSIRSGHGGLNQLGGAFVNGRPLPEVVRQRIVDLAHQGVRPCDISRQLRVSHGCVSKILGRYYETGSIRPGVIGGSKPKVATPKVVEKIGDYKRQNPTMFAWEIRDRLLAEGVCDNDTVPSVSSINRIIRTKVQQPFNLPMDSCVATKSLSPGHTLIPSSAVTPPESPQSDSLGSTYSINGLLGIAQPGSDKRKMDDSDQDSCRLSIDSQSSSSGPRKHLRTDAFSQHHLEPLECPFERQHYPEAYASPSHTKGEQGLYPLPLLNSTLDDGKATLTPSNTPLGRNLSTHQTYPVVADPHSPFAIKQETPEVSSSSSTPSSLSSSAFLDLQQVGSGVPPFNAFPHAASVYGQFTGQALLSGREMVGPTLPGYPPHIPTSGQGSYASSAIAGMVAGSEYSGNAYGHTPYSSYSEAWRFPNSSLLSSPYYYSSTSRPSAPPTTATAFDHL
Chain of FAD-linked sulfhydryl oxidase ALR (P55789 whole entry, the tested form may be a part): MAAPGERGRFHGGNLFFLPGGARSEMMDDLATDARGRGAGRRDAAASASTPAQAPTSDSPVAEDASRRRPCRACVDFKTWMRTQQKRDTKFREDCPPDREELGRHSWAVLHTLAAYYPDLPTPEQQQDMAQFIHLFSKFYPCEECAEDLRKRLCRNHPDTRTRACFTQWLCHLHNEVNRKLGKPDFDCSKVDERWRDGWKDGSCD

COc1ccccc1/N=C/c1nc(-c2ccccc2)oc1OC(C)=O
IC50 (Coagulation factor XII): 48.8 µM (active)

C=CCNc1ncnc2c1[nH]c1ccc(C)cc12
IC50 (Coagulation factor XII): > 50 µM (inactive)

Cn1nnnc1Sc1ncnc2scc(-c3cccc(S(C)(=O)=O)c3)c12
AC50 [1]: 14.9 µM (active)
AC50 [2]: 4.13 µM (active)
AC50 [3]: 35.3 µM (active)
AC50 [4]: 2.82 µM (active)
AC50 [5]: 25.8 µM (active)
AC50 [6]: 17.6 µM (active)
AC50 (Paired box protein Pax-8): 2.03 µM (active)

Cc1ccccc1Oc1cc(-n2ncc(Cl)c(Cl)c2=O)ncn1
AC50 [1]: 4.53 µM (active)
AC50 (INS1): 3.02 µM (active)
IC50 [7]: 0.882 µM (active)
AC50 [2]: 7.89 µM (active)
AC50 [8]: 3.94 µM (active)
AC50 [3]: 4.25 µM (active)
AC50 [4]: 9.42 µM (active)
AC50 [5]: 4.45 µM (active)
AC50 [6]: 1.65 µM (active)

Cc1cc(=O)oc2c1c(C)nn2-c1nn[nH]n1
IC50 [9]: 4.36 µM (active)
IC50 [10]: 1.76 µM (active)

CC1=CC(=C(C#N)C#N)C=C(C)N1CCN1CCN(C(=O)Nc2ccc(Cl)c(Cl)c2)CC1
IC50 [11]: > 111 µM (not active)
IC50 [12]: 16.3 µM (not active)

O=C(CSc1nnnn1C1CCCCC1)N1c2ccccc2Sc2ccccc21
EC50 [13]: 7.42 µM (active)

O=C(Nc1ccc(-c2nc3ncccc3o2)cc1)c1ccc(Br)o1
IC50 [14]: 3.5 µM (active)
IC50 [15]: 3.7 µM (active)

Cc1ccsc1C(=O)Nc1nccs1
IC50 [14]: > 39.9 µM (not active)
IC50 [15]: 27.3 µM (not active)

Cc1sc2ncnc(SCC(=O)NNC(=O)COc3cccc4ccccc34)c2c1C
IC50 [11]: > 111 µM (not active)
IC50 [12]: 2.02 µM (active)

Cn1cc(C(=O)c2ccc(Cl)cc2Cl)cc1C(=O)NN=C(N)COc1ccc(F)cc1
IC50 (Prothrombin): 2.13 µM (active)
EC50 [13]: 2.48 µM (active)

CCC1=C/C(=C\c2ccc3c(c2)OCO3)C(=O)S1
IC50 (Coagulation factor XII): > 50 µM (inactive)

CCc1ccc(-c2nc(CN3CCC(C(=O)NCc4ccc(F)cc4)CC3)c(C)o2)cc1
EC50 [13]: 4.46 µM (active)

O=C(O)c1cc(-c2ccc3c(c2)OCO3)nc2ccccc12
AC50 [3]: 31 µM (active)

CCCc1nc(-c2cc3cc(C)ccc3[nH]c2=O)no1
IC50 [9]: 2.41 µM (active)
IC50 [10]: 3.04 µM (active)
IC50 [16]: 12.8 µM (active)

CC12CCC(C[N+](C)(C)C1)C2(C)C (centres undefined)
IC50 [9]: 4.71 µM (active)
IC50 [10]: 2.69 µM (active)
IC50 [16]: 5.62 µM (active)

COc1ccc(-c2cn3c4c(sc3n2)CCCC4)cc1
AC50 [17]: 0.325 µM (active)
EC50 (cells): > 67.5 µM (inactive)
EC50 [18]: > 67.5 µM (inactive)

CCOc1cc(Br)cc(/C=N/NC(=O)c2cccnc2)c1O
AC50 (HEK293): 21.5 µM (active)
IC50 [19]: 16.8 µM (not active)

O=[N+]([O-])c1cccc(/C=N/Nc2nc(NCc3ccccc3)nc(N3CCOCC3)n2)c1
IC50 [11]: > 111 µM (not active)
IC50 [12]: 3.45 µM (active)

COc1ccccc1NC(=O)N1CCCCN2[C@@H](CO)[C@H](c3ccc(C#Cc4ccccc4)cc3)[C@@H]2C1
AC50 [20]: 9.96 µM (active)
AC50 [21]: < 0.3 µM (active)
